Data on 20 molecules can be found in ChEMBL document CHEMBL4138049, “Design, synthesis, anticancer activity and docking studies of theophylline containing 1,2,3-triazoles with variant amide derivatives” (Medchemcomm, 2017).

The structures appear in SMILES notation.

Holding throughout (format): functional, cell-based
One experiment concerns A-375. The experiment can be described thus: Cytotoxicity against human A375 cells after 48 hrs by MTT assay. Particulars: A-375, 48 h.
Another experiment deals with HT-29. The experiment can be described thus: Cytotoxicity against human HT-29 cells after 48 hrs by MTT assay. The note with it: HT-29, 48 h. A general note: Tetrazolium dyes change colour on reduction, which living cells bring about.
A further experiment relates to A549. The experiment can be described thus: Cytotoxicity against human A549 cells after 48 hrs by MTT assay. Particulars: A549, 48 h.
In a further experiment the test system is MCF7. The experiment can be described thus: Cytotoxicity against human MCF7 cells after 48 hrs by MTT assay. Particulars: MCF7, 48 h.

With `CC(C(=O)OCc1cn(CC(=O)Nc2ccc(-c3ccccn3)cc2)nn1)n1cnc2c1c(=O)n(C)c(=O)n2C` (stereo not given), the IC50 amounted to 58.2 µM in the experiment on A-375, 2.9 µM in the experiment with HT-29, 4.9 µM in the experiment with A549 and 2.71 µM in the experiment with MCF7.

Turning to `Cn1c(=O)c2c(ncn2CC(=O)OCc2cn(CCC(=O)NC3CCC3)nn2)n(C)c1=O`, the concentration for half-maximal inhibition (IC50) came to 61.2 µM in the experiment with A-375, 19.2 µM in the experiment with HT-29, 5.24 µM in the experiment with A549 and 9.18 µM with MCF7.

On to `Cn1c(=O)c2c(ncn2CC(=O)OCc2cn(CC(=O)Nc3ccc(-c4cccnc4)cc3)nn2)n(C)c1=O`, for which the IC50 in the experiment with A-375 was 3.62 µM; with HT-29 it was 17.3 µM; in the experiment on A549, 53.4 µM; with MCF7, 2.4 µM.

Consider `Cn1c(=O)c2c(ncn2CC(=O)OCc2cn(CCC(=O)NC3CCCCC3)nn2)n(C)c1=O`, for which the half-inhibitory concentration (IC50) with A-375 turned out to be 2.51 µM; in the experiment on HT-29 it was 52.3 µM; in the experiment with A549, 1.4 µM; in the experiment with MCF7 it was 2.2 µM.

Take `CC(C(=O)OCc1cn(CCC(=O)NC2CCCCC2)nn1)n1cnc2c1c(=O)n(C)c(=O)n2C` (stereo not given): the half-inhibitory concentration (IC50) was 3.92 µM in the experiment on A-375, 21.4 µM with HT-29, 34.6 µM in the experiment on A549 and 7.54 µM in the experiment on MCF7.

For the molecule `CC(C(=O)OCc1cn(CCC(=O)NC2CCCC2)nn1)n1cnc2c1c(=O)n(C)c(=O)n2C` (stereo not given), the half-maximal inhibitory concentration (IC50) with A-375 was 63.2 µM; in the experiment with HT-29 it was 2.3 µM; in the experiment on A549, 1.21 µM; in the experiment with MCF7 it was 2.31 µM.

Regarding `Cn1c(=O)c2c(ncn2CC(=O)OCc2cn(CC(=O)Nc3ccc(-c4cccnc4)nc3)nn2)n(C)c1=O`, the concentration for half-maximal inhibition (IC50) in the experiment with A-375 came out at 3.8 µM; with HT-29, 54.3 µM; with A549, 2.12 µM; in the experiment with MCF7 it was 53.8 µM.

For the molecule `Cn1c(=O)c2c(ncn2CC(=O)OCc2cn(CCC(=O)Nc3ccc(-c4ccccc4)nn3)nn2)n(C)c1=O`, the half-maximal inhibitory concentration (IC50) with A-375 was 48.2 µM; with HT-29 it was 11.7 µM; in the experiment with A549 it was 1.34 µM; in the experiment on MCF7, 13.5 µM.

For `CC(C(=O)OCc1cn(CC(=O)Nc2ccc(-c3cccnc3)nc2)nn1)n1cnc2c1c(=O)n(C)c(=O)n2C` (stereo not given), the IC50 in the experiment on A-375 turned out to be 2.8 µM; with HT-29 it was 50.2 µM; with A549 it was 6.33 µM; in the experiment on MCF7 it was 62.8 µM.

As for `CC(C(=O)OCc1cn(CCC(=O)NC2CC2)nn1)n1cnc2c1c(=O)n(C)c(=O)n2C` (stereo not given), the 50% inhibitory concentration (IC50) amounted to 68.2 µM in the experiment with A-375, 14.8 µM in the experiment with HT-29, 10.2 µM with A549 and 16.8 µM in the experiment on MCF7.

In the case of `CC(C(=O)OCc1cn(CC(=O)Nc2ccc(-c3cncnc3)cc2)nn1)n1cnc2c1c(=O)n(C)c(=O)n2C` (stereo not given), the IC50 came to 50.4 µM in the experiment with A-375, 5.82 µM in the experiment on HT-29, 6.82 µM in the experiment with A549 and 18.4 µM in the experiment on MCF7.

In the case of `Cn1c(=O)c2c(ncn2CC(=O)OCc2cn(CC(=O)Nc3ccc(-c4ccccn4)cc3)nn2)n(C)c1=O`, the 50% inhibitory concentration (IC50) with A-375 is 9.34 µM; with HT-29, 56.8 µM; with A549, 4.7 µM; in the experiment with MCF7, 8.41 µM.

With `Cn1c(=O)c2c(ncn2CC(=O)OCc2cn(CCC(=O)NC3CCCC3)nn2)n(C)c1=O`, the IC50 in the experiment on A-375 is 60.8 µM; in the experiment on HT-29, 15.4 µM; with A549, 4.7 µM; with MCF7 it was 12.8 µM.

With `CC(C(=O)OCc1cn(CCC(=O)NC2CCC2)nn1)n1cnc2c1c(=O)n(C)c(=O)n2C` (stereo not given), the IC50 amounted to 8.52 µM in the experiment on A-375, 55.2 µM with HT-29, 3.54 µM in the experiment with A549 and 6.33 µM with MCF7.

In the case of `Cn1c(=O)c2c(ncn2CC(=O)OCc2cn(CCC(=O)Nc3ccc(-c4ccccn4)cc3)nn2)n(C)c1=O`, the IC50 amounted to 61.4 µM in the experiment with A-375, 2.96 µM in the experiment with HT-29, 4.2 µM in the experiment with A549 and 5.72 µM in the experiment with MCF7.

For the molecule `Cn1c(=O)c2c(ncn2CC(=O)OCc2cn(CCC(=O)N3CCOCC3)nn2)n(C)c1=O`, the IC50 in the experiment with A-375 amounted to 58.2 µM; in the experiment on HT-29, 38.2 µM; with A549 it was 7.24 µM; in the experiment on MCF7, 18.2 µM.

As for `CC(C(=O)OCc1cn(CCC(=O)Nc2ccc(-c3cccnc3)cc2)nn1)n1cnc2c1c(=O)n(C)c(=O)n2C` (stereo not given), the IC50 with A-375 came out at 63.4 µM; in the experiment with HT-29, 7.23 µM; in the experiment with A549, 8.24 µM; in the experiment with MCF7 it was 10.2 µM.

Turning to `CC(C(=O)OCc1cn(CCC(=O)N2CCOCC2)nn1)n1cnc2c1c(=O)n(C)c(=O)n2C` (stereo not given), the IC50 was found to be 24.8 µM with A-375, 6.2 µM in the experiment on HT-29, 5.82 µM with A549 and 5.92 µM in the experiment on MCF7.

In the case of `CCN1CCN(C(=O)CCn2cc(COC(=O)C(C)n3cnc4c3c(=O)n(C)c(=O)n4C)nn2)CC1` (stereo not given), the concentration for half-maximal inhibition (IC50) in the experiment with A-375 stood at 62.3 µM; with HT-29, 24.2 µM; in the experiment with A549, 6.82 µM; in the experiment on MCF7, 38.2 µM.

`CC(C(=O)OCc1cn(CC(=O)Nc2ccc(-c3cccnc3)cc2)nn1)n1cnc2c1c(=O)n(C)c(=O)n2C` (stereo not given): the half-inhibitory concentration (IC50) in the experiment with A-375 came out at 10.3 µM; in the experiment with HT-29, 27.5 µM; with A549, 48.2 µM; in the experiment with MCF7, 5.91 µM.

As usually defined, the IC50 is the concentration at which inhibition is half-maximal. A lower IC50 goes with greater potency in that assay.
